Data published in patent US12419962B2, “Quinazolines, pharmaceutical compositions, and therapeutic applications” (BioTheryX, Inc., priority 2022, dated 2025).

Molecular target: T1, HiBiT-tagged endogenous SOS1 protein (Homo sapiens, UniProt Q07889)
T1 construct: HEK293 cells were engineered to express a HiBiT-tagged endogenous SOS1 protein; endogenous in cells; host or cells: HEK293 cells, engineered so that endogenous SOS1 carries a HiBiT tag
T1 sequence (Q07889 1-1333): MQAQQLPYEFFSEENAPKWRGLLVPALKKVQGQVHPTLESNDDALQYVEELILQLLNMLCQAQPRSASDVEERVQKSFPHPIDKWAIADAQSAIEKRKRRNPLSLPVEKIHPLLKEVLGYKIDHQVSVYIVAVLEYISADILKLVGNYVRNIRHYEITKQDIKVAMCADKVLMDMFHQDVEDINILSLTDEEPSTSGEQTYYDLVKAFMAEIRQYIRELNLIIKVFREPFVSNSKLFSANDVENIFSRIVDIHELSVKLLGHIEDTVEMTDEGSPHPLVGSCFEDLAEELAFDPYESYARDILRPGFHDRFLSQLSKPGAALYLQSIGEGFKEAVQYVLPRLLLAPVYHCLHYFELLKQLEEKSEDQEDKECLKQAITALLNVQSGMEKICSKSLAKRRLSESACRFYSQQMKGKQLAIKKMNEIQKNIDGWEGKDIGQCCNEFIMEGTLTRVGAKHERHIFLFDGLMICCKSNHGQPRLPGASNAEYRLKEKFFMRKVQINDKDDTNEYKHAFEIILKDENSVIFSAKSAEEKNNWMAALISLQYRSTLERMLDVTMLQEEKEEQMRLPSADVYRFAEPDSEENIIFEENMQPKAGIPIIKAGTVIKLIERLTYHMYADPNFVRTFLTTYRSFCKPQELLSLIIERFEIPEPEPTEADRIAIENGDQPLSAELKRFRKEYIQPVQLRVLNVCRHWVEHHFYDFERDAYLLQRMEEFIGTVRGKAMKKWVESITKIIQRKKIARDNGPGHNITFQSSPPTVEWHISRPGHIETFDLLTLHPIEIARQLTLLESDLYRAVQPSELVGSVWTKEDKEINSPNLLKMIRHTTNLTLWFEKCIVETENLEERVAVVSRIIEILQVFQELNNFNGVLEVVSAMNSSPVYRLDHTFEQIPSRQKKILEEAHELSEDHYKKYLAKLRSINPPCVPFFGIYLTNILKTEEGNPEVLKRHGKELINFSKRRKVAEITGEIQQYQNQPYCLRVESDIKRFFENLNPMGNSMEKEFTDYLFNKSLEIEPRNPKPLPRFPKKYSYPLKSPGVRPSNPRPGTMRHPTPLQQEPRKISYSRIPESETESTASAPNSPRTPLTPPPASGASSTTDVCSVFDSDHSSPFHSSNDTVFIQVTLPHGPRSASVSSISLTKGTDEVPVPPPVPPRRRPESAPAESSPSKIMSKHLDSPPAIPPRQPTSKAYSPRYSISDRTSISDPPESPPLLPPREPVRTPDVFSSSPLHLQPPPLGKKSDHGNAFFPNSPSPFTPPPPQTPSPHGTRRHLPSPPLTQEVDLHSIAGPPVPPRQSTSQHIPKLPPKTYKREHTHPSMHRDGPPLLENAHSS
Assay: SOS1-HiBiT Degradation Assay
Format: cell-based
Details: HEK293 cells expressing HiBiT-tagged endogenous SOS1, 6 h treatment
Method: HEK293 cells were engineered to express a HiBiT-tagged endogenous SOS1 protein. The cells were cultured in DMEM media supplemented with 10% fetal bovine serum, streptomycin, and penicillin. The cells were seeded in a white walled 384-well plate at 12,500 cells/well in 50 μL culture media. The cells were incubated at 37° C. under 5% CO2 overnight. The cells were then treated with DMSO (control) or a compound for 6 h at 37° C. under 5% CO2. After incubation, 25 μL media was removed from each cell and 25 μL NANO-GLO® lytic detection reagent was added to each well. After a 10 min incubation with shaking, luminescence was measured using a PERKINELMER ENVISION® multimode plate reader.
The results are summarized in Table 1, where “A” represents a DC50 of no greater than 100 nM, “B” represents a DC50 of greater than 100 nM and no greater than 500 nM; “C” represents a DC50 of greater than 500 nM and no greater than 2 μM; and “D” represents a DC50 of greater than 2 μM; and where “A′” represents a Dmax of no less than 70%, “B′” represents a Dmax of less than 70% and no less than 50%; “C′” represents a Dmax of less than 50% and no less than 30%; and “D′” represents a Dmax of less than 30%. Compounds C1 and C2 are (R)-2-(3-(1-((6,7-dimethoxy-2-methylquinazolin-4-yl)amino)ethyl)phenyl)-2,2-difluoroethan-1-ol and (R)—N-(1-(3-amino-5-(trifluoromethyl)phenyl)ethyl)-6,7-dimethoxy-2-methylquinazolin-4-amine, respectively.

Q: How did the DC50 turn out when `COc1cc2nc(C)nc(N[C@H](C)c3cc(N)cc(C(F)(F)F)c3)c2cc1OC` [Compound C2, (R)—N-(1-(3-amino-5-(trifluoromethyl)phenyl)ethyl)-6,7-dimethoxy-2-methylquinazolin-4-amine] was run?
A: The DC50 was > 10 µM.

Q: And the Dmax?
A: The Dmax was 0%.

Q: `COc1cc2nc(C)nc(N[C@H](C)c3cccc(C(F)(F)CO)c3)c2cc1OC` [Compound C1, (R)-2-(3-(1-((6,7-dimethoxy-2-methylquinazolin-4-yl)amino)ethyl)phenyl)-2,2-difluoroethan-1-ol] was tested. Which DC50 did it give?
A: The DC50 was > 10 µM.

Q: What about the Dmax of the same compound?
A: The Dmax was 0%.
